Assay results taken from ChEMBL document CHEMBL3232865, “Development and characterization of 3-(benzylsulfonamido)benzamides as potent and selective SIRT2 inhibitors” (Eur J Med Chem, 2014).

How the values were obtained:
in vitro [1] = conditions: human, microsomes
in vitro [2] = conditions: mouse, microsomes
in vitro [3] = conditions: mouse, microsomes; remark: listed apart in the source
in vitro [4] = conditions: human, microsomes; remark: listed apart in the source
in vitro [5] = conditions: mouse, microsomes; remark: listed apart in the source
in vitro [6] = conditions: human, microsomes; remark: listed apart in the source
[7] = mouse, microsomes, 1 µM
in vitro [8] = conditions: human, microsomes; remark: listed apart in the source
[9] = mouse, microsomes, 1 µM; remark: listed apart in the source
[10] = human, microsomes, 1 h, 1 µM
in vitro [11] = conditions: mouse, microsomes; remark: listed apart in the source
[12] = human, microsomes, 1 µM
in vitro [13] = conditions: mouse, microsomes; remark: listed apart in the source
in vitro [14] = conditions: human, microsomes; remark: listed apart in the source
[15] = Half life in mouse plasma at 5 uM; assay type: ADME, cell-free
[16] = Metabolic stability in mouse plasma assessed as compound remaining at 5 uM; assay type: ADME, cell-free; conditions: read-out: Stability

| remaining at 1 µM (in vitro [1]) [%] | remaining at 1 µM (in vitro [2]) [%] | remaining at 1 µM (in vitro [3]) [%] | remaining at 1 µM (in vitro [4]) [%] | SMILES | other results |
| --- | --- | --- | --- | --- | --- |
| 2 | 100 | 4 | 112 | CN(c1ccc(Cl)cc1)S(=O)(=O)c1cccc(C(=O)Nc2ccc(S(C)(=O)=O)cc2)c1 | – |
| 2 | 96 | 1 | 91 | CN(c1ccc(Cl)cc1)S(=O)(=O)c1cccc(C(=O)Nc2ccc(C#N)cn2)c1 | – |
| 12 | 108 | 0 | – | CC(=O)c1ccc(N(C)S(=O)(=O)c2cccc(C(=O)Nc3ccc(Cl)cc3)c2)cc1 | – |
| 12 | 91 | 0 | 82 | CC(=O)c1ccc(N(C)S(=O)(=O)c2cccc(C(=O)Nc3ccc(Cl)cn3)c2)cc1 | – |

Further lines, the compound ahead of its results:

| SMILES | remaining at 1 µM (in vitro [1]) [%] | remaining at 1 µM (in vitro [2]) [%] | remaining at 1 µM (in vitro [3]) [%] | remaining at 1 µM (in vitro [4]) [%] | other results |
| --- | --- | --- | --- | --- | --- |
| CN(c1ccc(F)cc1)S(=O)(=O)c1cccc(C(=O)Nc2ccc(C#N)cc2)c1 | 16 | – | – | – | – |
| COc1ccc(N(C)S(=O)(=O)c2cccc(C(=O)Nc3ccc(C#N)cc3)c2)cc1 | 2 | 90 | 2 | 106 | – |
| CN(c1ccc(S(C)(=O)=O)cc1)S(=O)(=O)c1cccc(NC(=O)c2ccc(Br)cc2)c1 | – | – | – | – | microsomal CLint at 1 µM (in vitro [5]): 945 µL/min/mg; microsomal CLint at 1 µM (in vitro [6]): 31 µL/min/mg; CL [7]: 136 µL/min/mg; microsomal CLint at 1 µM (in vitro [8]): 512 µL/min/mg; t1/2 [9]: 1.7 min; Stability [10]: 0.9%; half-life at 1 µM (in vitro [11]): 2.45 min; t1/2 [12]: 75.7 min; remaining at 1 h, 1 µM (in vitro [13]): 1.5%; half-life at 1 µM (in vitro [14]): 4.5 min |
| CC(C)[N+](C)(CCOC(=O)C1c2ccccc2Oc2ccccc21)C(C)C [PROPANTHELINE] | – | – | – | – | half-life at 5 µM [15]: 18 min; remaining at 5 µM [16]: 3.4% |
